{"source": "patent US20060206946A1", "about": "“Method of disrupting heme transport in nematodes and of modelling and evaluating eukaryotic heme transport” (priority 2005, published 2006)", "assay_in_all_cases": "Growth of heme resistant mutant in CeHR medium", "type_in_all_cases": "in vivo, Caenorhabditis elegans", "key": {"C. elegans mutant IH728": {"tested_on": "C. elegans mutant IH728", "description": "(§1) To further increase the stringency of our genetic screen we split the contents from each 800 μM hemin selection flasks into two flasks containing either 800 μM or 1000 μM hemin. This allowed us to use another tier of positive selection to identify mutants with greater resistance to heme toxicity. Mutants from each flask were isolated and treated as a separate entity by giving an identification number based on the Genetic Nomenclature Guidelines used for C. elegans (http://biosci.umn.edu/CGC/Nomenclature/nomenguid.htm). To eliminate EMS-induced spurious mutations that could result in false positive, the mutants were outcrossed to wild-type N2 males. After five outcrosses, which replaces ˜97% of the mutant genome, mutants that bred true were selected for further analysis. Using this procedure, we isolated 13 individual mutants that were resistant to heme toxicity. These mutants were further characterized by analyzing Mendelian segregation ratios, X-linkage, phenotype penetrance, generation times, brood size, and their ability to grow under low hemin. […] This observation was surprising because we anticipated that high heme-resistant mutants will grow poorly under low heme. Based on the mutant's growth profile at low and high heme levels, we broadly categorized them into three phenotypic classes: class A, class B and class C (FIG. 13). These “phenoclusters” have the following growth phenotype: (a) three mutants IH728, IH938, IH731 show with robust growth under low and high (≧800 μM heme (FIG. 13B), (b) one mutant IH828 show exceptional growth under low heme, moderate growth at ≦800 μM heme, and no growth at 1000 μM hemin (FIG. 13C), and (c) six mutants IH921, IH11058, IH1068n, IH1068d, IH1048, and IH718 that show moderate growth under high heme (≦800 μM), but normal growth under low heme (FIG. 13D). By classifying these mutants into phenoclusters, we can focus our efforts on the phenotypic datasets to map the molecular networks and pathways involved in heme dependent processes. For instance, mutants in a cluster may have mutations within the same gene or in multiple genes but within the same pathway.\n(§2) Worm Culture and Growth Assays. Free-living worms were cultured in CeHR axenic liquid medium (Dr. Eric Clegg, Personal Communication). […] CeHR medium was modified (henceforth called mCeHR) to eliminate all sources of exogenously added heme; basal growth medium comprised 20 μM hemin chloride (Frontier Scientific, Logan, Utah) and 150 μM of ferrous ammonium sulfate (Sigma Chemicals). Worm strains were grown in mCeHR medium under aerobic conditions in tissue culture flasks at 20° C. ˜3.7×10^6 worms were routinely obtained after 3.5 to 4 days in a T75 flask with 30 ml basal medium from an initial inoculum of −1.5×10^5 worms. For initial culturing of worms in axenic media, three generations of worms were sequentially bleached (1.1% bleach/0.55 M NaOH) to eliminate any contaminating bacterial carryover from agar plates. In all dose-response experiments, worms were growth synchronized by treating the gravid hermaphrodite worms with bleach to dissolve adult worms. The eggs, resistant to bleach, were liberated from the carcasses and extensively washed with M9 buffer followed by overnight hatching in M9 buffer to synchronize growth. By harvesting at appropriate time intervals, synchronous larval stages and adult staged worms were collected for experimental manipulations. Identical numbers of synchronized L1 larvae were inoculated into media with different heme concentrations in 12- or 24-well culture plates. Worm growth was monitored each day and an aliquot was obtained for counting by microscopy usually at days 3, 6, and 9. The worms in each well were counted twice and each growth condition was analyzed in triplicate. P values for statistical significance were calculated utilizing a one-way ANOVA with Student-Newman-Keuls multiple comparison test using GraphPad Instat version 3.01. […]"}, "C. elegans mutant IH731": {"tested_on": "C. elegans mutant IH731", "description": "as §1, §2"}, "C. elegans mutant IH828": {"tested_on": "C. elegans mutant IH828", "description": "as §1, §2"}, "C. elegans mutant IH938": {"tested_on": "C. elegans mutant IH938", "description": "as §1, §2"}, "C. elegans mutant IH1048": {"tested_on": "C. elegans mutant IH1048", "set-up": "key to Growth 1.6 μM hemin / Growth 0.5 μM GaPP: + = wild type equivalent In growth; ND: No growth", "description": "as §1, §2"}, "[1]": {"tested_on": "C. elegans mutant IH1068 d", "set-up": "key to Growth 1.6 μM hemin / Growth 0.5 μM GaPP: + = wild type equivalent In growth; ND: No growth", "description": "as §1, §2"}, "[2]": {"tested_on": "C. elegans mutant IH1068 n", "set-up": "key to Growth 1.6 μM hemin / Growth 0.5 μM GaPP: + = wild type equivalent In growth; ND: No growth", "description": "as §1, §2"}, "C. elegans mutant IH718": {"tested_on": "C. elegans mutant IH718", "set-up": "key: + = wild type equivalent In growth; ND: No growth", "description": "To further increase the stringency of our genetic screen we split the contents from each 800 μM hemin selection flasks into two flasks containing either 800 μM or 1000 μM hemin. This allowed us to use another tier of positive selection to identify mutants with greater resistance to heme toxicity. Mutants from each flask were isolated and treated as a separate entity by giving an identification number based on the Genetic Nomenclature Guidelines used for C. elegans (http://biosci.umn.edu/CGC/Nomenclature/nomenguid.htm). To eliminate EMS-induced spurious mutations that could result in false positive, the mutants were outcrossed to wild-type N2 males. After five outcrosses, which replaces ˜97% of the mutant genome, mutants that bred true were selected for further analysis. Using this procedure, we isolated 13 individual mutants that were resistant to heme toxicity. […]\nWorm Culture and Growth Assays. […] Worm growth was monitored each day and an aliquot was obtained for counting by microscopy usually at days 3, 6, and 9. The worms in each well were counted twice and each growth condition was analyzed in triplicate. P values for statistical significance were calculated utilizing a one-way ANOVA with Student-Newman-Keuls multiple comparison test using GraphPad Instat version 3.01. […]"}, "[3]": {"details": "20 μM hemin, average in 24 well plates"}}, "note": "Entries after “also recorded” stand apart in the source; their conditions may differ.", "data": [{"substance": "hemin chloride", "values": [{"measurement": "Generation time (Days) 20 μM", "setting": "C. elegans mutant IH728; 20 μM hemin", "value": 3.5, "unit": "days"}, {"measurement": "brood size 20 μM", "setting": "C. elegans mutant IH728; [3]", "value": 53}, {"measurement": "Generation time (Days) 800 μM", "setting": "C. elegans mutant IH728; 800 μM hemin", "value": 4, "unit": "days"}, {"measurement": "Generation time (Days) 20 μM", "setting": "C. elegans mutant IH731; 20 μM hemin", "value": 3.5, "unit": "days"}, {"measurement": "brood size 20 μM", "setting": "C. elegans mutant IH731; [3]", "value": 53}, {"measurement": "Generation time (Days) 800 μM", "setting": "C. elegans mutant IH731; 800 μM hemin", "value": 4, "unit": "days"}, {"measurement": "resistance of IH828", "setting": "C. elegans mutant IH828; 800 μM hemin", "value": "moderately resistant"}, {"measurement": "growth of IH828", "setting": "C. elegans mutant IH828; 1000 μM hemin", "value": "no growth; also recorded: does not grow"}, {"measurement": "Generation time (Days) 20 μM", "setting": "C. elegans mutant IH828; IH828, 20 μM hemin", "value": 3.5, "unit": "days"}, {"measurement": "brood size 20 μM", "setting": "C. elegans mutant IH828; IH828, 20 μM hemin, average in 24 well plates", "value": 67}, {"measurement": "Generation time (Days) 800 μM", "setting": "C. elegans mutant IH828; IH828, 800 μM hemin", "value": 4, "unit": "days"}, {"measurement": "Generation time (Days) 20 μM", "setting": "C. elegans mutant IH938; 20 μM hemin", "value": 3.5, "unit": "days"}, {"measurement": "brood size 20 μM", "setting": "C. elegans mutant IH938; [3]", "value": 72}, {"measurement": "Generation time (Days) 800 μM", "setting": "C. elegans mutant IH938; 800 μM hemin", "value": 4, "unit": "days"}, {"measurement": "Growth 1.6 μM hemin", "setting": "C. elegans mutant IH1048", "value": "+"}, {"measurement": "Generation time (Days) 800 μM", "setting": "C. elegans mutant IH1048; 800 μM hemin", "value": 4, "unit": "days"}, {"measurement": "Growth 1.6 μM hemin", "setting": "[1]", "value": "+"}, {"measurement": "brood size 20 μM", "setting": "[1]; [3]", "value": 12.4}, {"measurement": "Generation time (Days) 800 μM", "setting": "[1]; 800 μM hemin", "value": 4, "unit": "days"}, {"measurement": "Growth 1.6 μM hemin", "setting": "[2]", "value": "+"}, {"measurement": "Generation time (Days) 20 μM", "setting": "[2]; 20 μM hemin", "value": 4, "unit": "days"}, {"measurement": "Growth 1.6 μM hemin", "setting": "C. elegans mutant IH718", "value": "+"}]}]}
